The values below come from patent publication US20070244103A1, “Novel Compounds Having an Anti-Bacterial Activity” (Morphochem Aktiengesellschaft Fur Kombinatorische Chemie, priority 2004, published 2007).

For orientation: MIC means the smallest concentration in the dilution series that meets the test's criterion for growth inhibition.

The nature of the test: MIC of the examples against various organisms. The class given is cell-based. The following applies: against at least two of the above organisms (12-strain panel). As for the experimental part:
The MIC (μg/ml) of the examples against various organisms was determined: A. baumannii ATCC19606, E. cloacae ATCC23355, E. coli ATCC25922, K. pneumoniae ATCC27736, P. mirabilis ATCC29906, P. aeruginosa ATCC27853, S. maltophilia ATCC13637, S. aureus ATCC43300, S. epidermidis ATCC14990, S. haemolyticus ATCC29970, E. faecalis ATCC29212 and E. faecium ATC19434.
In the case of `COc1cnc2cccc(C(O)CN3C4CCC3CC(NCc3ccc5c(c3)OCCO5)C4)c2c1` (stereo not drawn) [Example 39, 2-{3-[(2,3-Dihydro-benzo[1,4]dioxin-6-ylmethyl)-amino]-8-aza-bicyclo[3.2.1]oct-8-yl}-1-(3-methoxy-quinolin-5-yl)-ethanol], the MIC is ≤ 2 µg/mL.

Regarding `COc1cnc2cccc(C(O)CN3C4CCC3CC(NCc3ccc5nsnc5c3)C4)c2c1` (stereo not drawn) [Example 40, 2-{3-[(Benzo[1,2,5]thiadiazol-5-ylmethyl)-amino]-8-aza-bicyclo[3.2.1]oct-8-yl}-1-(3-methoxy-quinolin-5-yl)-ethanol], the MIC is ≤ 2 µg/mL.

Regarding `COc1ccc2nccc(NC(=O)C3CCCC(CNC/C=C/c4ccccc4)C3)c2c1` (stereo not drawn) [Example 53, 3-[((E)-3-Phenyl-allylamino)-methyl]-cyclohexanecarboxylic acid (6-methoxy-quinolin-4-yl)-amide], the MIC is ≤ 2 µg/mL.

In the case of `COc1cnc2cccc(C(O)CN3C4CCC3CC(NCc3ccc5c(c3)OCCO5)C4)c2n1` (stereo not drawn) [Example 78, 2-{3-[(2,3-Dihydro-benzo[1,4]dioxin-6-ylmethyl)-amino]-8-aza-bicyclo[3.2.1]oct-8-yl}-1-(3-methoxy-quinoxalin-5-yl)-ethanol], the MIC is ≤ 2 µg/mL.

On to `COc1cnc2cccc(C(O)CN3C4CCC3CC(NCc3ccc5c(n3)NC(=O)CS5)C4)c2n1` (stereo not drawn) [Example 79, 6-({8-[2-Hydroxy-2-(3-methoxy-quinoxalin-5-yl)-ethyl]-8-aza-bicyclo[3.2.1]oct-3-ylamino}-methyl)-4H-pyrido[3,2-b][1,4]thiazin-3-one], for which the MIC was ≤ 2 µg/mL.

`COc1cnc2cccc(C(O)CN3C4CCC3CC(NCc3ccc5c(c3)NC(=O)CO5)C4)c2n1` (stereo not drawn) [Example 80, 6-({8-[2-Hydroxy-2-(3-methoxy-quinoxalin-5-yl)-ethyl]-8-aza-bicyclo[3.2.1]oct-3-ylamino}-methyl)-4H-benzo[1,4]oxazin-3-one]: the MIC is ≤ 2 µg/mL.

On to `COc1cnc2cccc(C(O)CN3C4CCC3CC(NCc3ccc5c(c3)OCO5)C4)c2n1` (stereo not drawn) [Example 81, 2-{3-[(Benzo[1,3]dioxol-5-ylmethyl)-amino]-8-aza-bicyclo[3.2.1]oct-8-yl}-1-(3-methoxy-quinoxalin-5-yl)-ethanol], for which the MIC was ≤ 2 µg/mL.

As for `COc1cnc2cccc(C(O)CN3C4CCC3CC(NCc3ccc5nsnc5c3)C4)c2n1` (stereo not drawn) [Example 82, 2-{3-[(Benzo[1,2,5]thiadiazol-5-ylmethyl)-amino]-8-aza-bicyclo[3.2.1]oct-8-yl}-1-(3-methoxy-quinoxalin-5-yl)-ethanol], the MIC is ≤ 2 µg/mL.

Turning to `COc1cnc2cccc(C(O)CN3C4CCC3CC(NCc3cc5c(cc3F)SCC(=O)N5)C4)c2n1` (stereo not drawn) [Example 84, 7-Fluoro-6-({8-[2-hydroxy-2-(3-methoxy-quinoxalin-5-yl)-ethyl]-8-aza-bicyclo[3.2.1]oct-3-ylamino}-methyl)-4H-benzo[1,4]thiazin-3-one], the MIC is ≤ 2 µg/mL.

As to `COc1cnc2cccc(C(O)CN3C4CCC3CC(NCc3ccc5c(c3)NC(=O)CS5)C4)c2n1` (stereo not drawn) [Example 85, 6-({8-[2-Hydroxy-2-(3-methoxy-quinoxalin-5-yl)-ethyl]-8-aza-bicyclo[3.2.1]oct-3-ylamino}-methyl)-4H-benzo[1,4]thiazin-3-one], the MIC was ≤ 2 µg/mL.

For the molecule `COc1cnc2cccc(C(O)CN3C4CCC3CC(NC/C=C/c3ccccc3)C4)c2n1` (stereo not drawn) [Example 86, 1-(3-Methoxy-quinoxalin-5-yl)-2-[3-((E)-3-phenylallylamino)-8-aza-bicyclo[3.2.1]oct-8-yl]-ethanol], the MIC was ≤ 2 µg/mL.

On to `COc1cnc2cccc(C(O)CN3CCCC(CNCc4ccc5c(c4)NC(=O)CO5)C3)c2n1` (stereo not drawn) [Example 87, 6-[({1-[2-Hydroxy-2-(3-methoxy-quinoxalin-5-yl)-ethyl]-piperidin-3-ylmethyl}-amino)-methyl]-4H-benzo[1,4]oxazin-3-one], for which the MIC is ≤ 2 µg/mL.

Take `COc1cnc2cccc(C(O)CN3CCCC(CNCc4cc5c(cn4)OCCO5)C3)c2n1` (stereo not drawn) [Example 88, 2-(3-{[(2,3-Dihydro-[1,4]dioxino[2,3-c]pyridin-7-ylmethyl)-amino]-methyl}-piperidin-1-yl)-1-(3-methoxyquinoxalin-5-yl)-ethanol]: the MIC is ≤ 2 µg/mL.

Take `COc1cnc2cccc(C(O)CN3CCCC(CNCc4cc5c(cc4F)SCC(=O)N5)C3)c2n1` (stereo not drawn) [Example 89, 7-Fluoro-6-[({1-[2-hydroxy-2-(3-methoxy-quinoxalin-5-yl)-ethyl]-piperidin-3-ylmethyl}-amino)-methyl]-4H-benzo[1,4]thiazin-3-one]: the MIC was ≤ 2 µg/mL.

With `COc1cnc2cccc(C(O)CN3CCCC(CNCc4ccc5c(n4)NC(=O)CS5)C3)c2n1` (stereo not drawn) [Example 90, 6-[({1-[2-Hydroxy-2-(3-methoxy-quinoxalin-5-yl)-ethyl]-piperidin-3-ylmethyl}-amino)-methyl]-4H-pyrido[3,2-b][1,4]thiazin-3-one], the MIC was ≤ 2 µg/mL.

As for `COc1cnc2cccc(C(O)CN3CCCC(CNCc4ccc5c(c4)NC(=O)CS5)C3)c2n1` (stereo not drawn) [Example 91, 6-[({1-[2-Hydroxy-2-(3-methoxy-quinoxalin-5-yl)-ethyl]-piperidin-3-ylmethyl}-amino)-methyl]-4H-benzo[1,4]thiazin-3-one], the MIC is ≤ 2 µg/mL.

Take `COc1cnc2cccc(C(O)CN3CCCC(CNCc4ccc5c(c4)OCCO5)C3)c2n1` (stereo not drawn) [Example 92, 2-(3-{[(2,3-Dihydro-benzo[1,4]dioxin-6-ylmethyl)-amino]-methyl}-piperidin-1-yl)-1-(3-methoxy-quinoxalin-5-yl)-ethanol]: the MIC is ≤ 2 µg/mL.

As for `COc1cnc2ccc(Cl)c(C(O)CN3CCCC(CNCc4ccc5c(c4)NC(=O)CO5)C3)c2n1` (stereo not drawn) [Example 93, 6-[({1-[2-(6-Chloro-3-methoxy-quinoxalin-5-yl)-2-hydroxy-ethyl]-piperidin-3-ylmethyl}-amino)-methyl]-4H-benzo[1,4]oxazin-3-one], the MIC was ≤ 2 µg/mL.

On to `COc1cnc2ccc(Cl)c(C(O)CN3CCCC(CNCc4ccc5c(c4)OCO5)C3)c2n1` (stereo not drawn) [Example 94, 2-(3-{[(Benzo[1,3]dioxol-5-ylmethyl)-amino]-methyl}-piperidin-1-yl)-1-(6-chloro-3-methoxy-quinoxalin-5-yl)-ethanol], for which the MIC was ≤ 2 µg/mL.

On to `COc1cnc2ccc(Cl)c(C(O)CN3CCCC(CNCc4ccc5c(c4)OCCO5)C3)c2n1` (stereo not drawn) [Example 95, 1-(6-Chloro-3-methoxy-quinoxalin-5-yl)-2-(3-{[(2,3-dihydro-benzo[1,4]dioxin-6-ylmethyl)-amino]-methyl}-piperidin-1-yl)-ethanol], for which the MIC was ≤ 2 µg/mL.

As for `COc1cnc2ccc(Cl)c(C(O)CN3CCCC(CNCc4ccc5c(c4)NC(=O)CS5)C3)c2n1` (stereo not drawn) [Example 96, 6-[({1-[2-(6-Chloro-3-methoxy-quinoxalin-5-yl)-2-hydroxy-ethyl]-piperidin-3-ylmethyl}-amino)-methyl]-4H-benzo[1,4]thiazin-3-one], the MIC was ≤ 2 µg/mL.

In the case of `COc1cnc2ccc(Cl)c(C(O)CN3CCCC(CNCc4cc5c(cn4)OCCO5)C3)c2n1` (stereo not drawn) [Example 97, 1-(6-Chloro-3-methoxy-quinoxalin-5-yl)-2-(3-{[(2,3-dihydro-[1,4]dioxino[2,3-c]-pyridin-7-ylmethyl)-amino]-methyl}-piperidin-1-yl)-ethanol], the MIC was ≤ 2 µg/mL.

In the case of `COc1cnc2ccc(Cl)c(C(O)CN3CCCC(CNCc4cc5c(cc4F)SCC(=O)N5)C3)c2n1` (stereo not drawn) [Example 98, 6-[({1-[2-(6-Chloro-3-methoxy-quinoxalin-5-yl)-2-hydroxy-ethyl]-piperidin-3-ylmethyl}-amino)-methyl]-7-fluoro-4H-benzo[1,4]thiazin-3-one], the MIC is ≤ 2 µg/mL.

For `COc1cnc2ccc(Cl)c(C(O)CN3CCCC(CNC/C=C/c4ccccc4)C3)c2n1` (stereo not drawn) [Example 99, 1-(6-Chloro-3-methoxy-quinoxalin-5-yl)-2-{3-[((E)-3-phenyl-allylamino)-methyl]-piperidin-1-yl}-ethanol], the MIC was ≤ 2 µg/mL.

`COc1cnc2cccc(NC(=O)C3CCCC(CNCc4ccc5c(n4)NC(=O)CS5)C3)c2n1` (stereo not drawn) [Example 105, 3-{[(3-Oxo-3,4-dihydro-2H-pyrido[3,2-b][1,4]thiazin-6-ylmethyl)-amino]-methyl}-cyclohexanecarboxylic acid (3-methoxy-quinoxalin-5-yl)-amide]: the MIC was ≤ 2 µg/mL.

Turning to `COc1cnc2cccc(NC(=O)C3CCCC(CNCc4cc5c(cn4)OCCO5)C3)c2n1` (stereo not drawn) [Example 107, 3-{[(2,3-Dihydro-[1,4]dioxino[2,3-c]pyridin-7-ylmethyl)-amino]-methyl}-cyclohexanecarboxylic acid (3-methoxy-quinoxalin-5-yl)-amide], the MIC was ≤ 2 µg/mL.

For `COc1ccc2cccc(NC(=O)C3CCCC(CNCc4ccc5c(n4)NC(=O)CS5)C3)c2n1` (stereo not drawn) [Example 108, 3-{[(3-Oxo-3,4-dihydro-2H-pyrido[3,2-b][1,4]thiazin-6-ylmethyl)-amino]-methyl}-cyclohexanecarboxylic acid (2-methoxy-quinolin-8-yl)-amide], the MIC is ≤ 2 µg/mL.

Take `COc1ccc2cccc(NC(=O)C3CCCC(CNCc4ccc5c(c4)OCCO5)C3)c2n1` (stereo not drawn) [Example 110, 3-{[(2,3-Dihydro-benzo[1,4]dioxin-6-ylmethyl)-amino]-methyl}-cyclohexanecarboxylic acid (2-methoxy-quinolin-8-yl)-amide]: the MIC was ≤ 2 µg/mL.

As for `COc1ccc2cccc(NC(=O)C3CCCC(CNCc4cc5c(cn4)OCCO5)C3)c2n1` (stereo not drawn) [Example 111, 3-{[(2,3-Dihydro-[1,4]dioxino[2,3-c]pyridin-7-ylmethyl)-amino]-methyl}-cyclohexanecarboxylic acid (2-methoxy-quinolin-8-yl)-amide], the MIC is ≤ 2 µg/mL.

For `COc1ccc2cccc(NC(=O)C3CCCC(CNCc4ccc5c(c4)NC(=O)CS5)C3)c2n1` (stereo not drawn) [Example 112, 3-{[(3-oxo-3,4-dihydro-2H-benzo[1,4]thiazin-6-ylmethyl)-amino]-methyl}-cyclohexanecarboxylic acid (2-methoxy-quinolin-8-yl)-amide], the MIC is ≤ 2 µg/mL.
